Measurements as given in patent US20140024700A1, “BLOOD-BORNE MIRNAS AS SURROGATE MARKERS OF DRUG EFFICACY FOR CARDIAC CONDITIONS” (miRagen Therapeutics, Inc., priority 2010, published 2014).
Where two headings read alike, the source gives them in different places.

Tested on: plasma miRNAs
Details: 8 weeks
Method: To evaluate plasma biomarkers over time, surgically implanted catheters were used for non-invasive bi-weekly blood draws in the Dahl salt-sensitive rat model of congestive heart failure described in Example 1. Changes in plasma miRNA biomarkers with disease progression and therapeutic treatment with an LNA-modified antisense oligonucleotide targeting miR-208a (M−10101; SEQ ID NO: 12) were evaluated. The flowing experimental groups were tested:
The M-10591 oligonucleotide (SEQ ID NO:13) targets miR-67 from C. elegans, which is not expressed in mammalian tissue, and therefore was used as a control. Dahl salt-sensitive rats were implanted with catheters at week zero and baseline blood was taken. Following catheter implant surgery, high-salt diet was initiated. One week following the initiation of the 4.0% NaCl diet, rats were dosed subcutaneously (s.c.) with saline or antimiRs at 25 mg/kg once every 2 weeks. On alternating weeks (non-injection weeks) 1.5 mls of blood was drawn from the catheter for plasma isolation. Animals were sacrificed 8 weeks after the initial injection.
Plasma and tissue molecular endpoints were evaluated using Taqman RT-PCR assays. Specifically, RNA from plasma samples was isolated using Trizol LS (Invitrogen). Synthetic C. elegans miRNA sequences for lin-4 and miR-2 were added at a constant concentration to each sample to monitor purification efficiency and for normalization. Tissue RNA was isolated using standard Trizol RNA isolation. Standard ABI Taqman miRNA assay protocols were used to determine relative miRNA levels.
Changes in plasma miRNA levels between rats suffering from hypertension-induced heart failure (H S/saline group) and rats treated with an antimiR-208a oligonucleotide (HS/M-10101) were assessed at 8 weeks by both miRNA Taqman array card analysis (Tables 2 and 3) and real-time PCR analysis (Table 4).

[1] = Down Regulated, HS-Saline vs. HS-10101, Real Time PCR
[2] = Up-regulated, HS-Saline vs. HS-10101, Real Time PCR
[3] = decreased in response to treatment, HS-saline/HS-10101, array card
[4] = increased in response to treatment, HS-10101/HS-Saline, array card

Substance: M-10101: antimiR targeting bases 2 to 17 of mature miR-208a, LNA and DNA linked by phosphorothioate bonds; 5′-CTTTTTGCTCGTCTTA-3′ (SEQ ID NO: 12) (all phosphorothioate, sugars by position and methylation of C not given here; LNA/DNA mixmer; listed as Homo sapiens)
- Fold change of plasma hsa-miR-16 [1]: 3.45 fold
- Fold change of plasma hsa-miR-20a [1]: 1.92 fold
- Fold change of plasma hsa-miR-20b [1]: 2.10 fold
- Fold change of plasma hsa-miR-21 [1]: 1.48 fold
- Fold change of plasma hsa-miR-22 [1]: 1.50 fold
- Fold change of plasma hsa-miR-27a [1]: 2.10 fold
- Fold change of plasma hsa-miR-92a [1]: 2.32 fold
- Fold change of plasma hsa-miR-93 [1]: 2.87 fold
- Fold change of plasma hsa-miR-106b [1]: 2.57 fold
- Fold change of plasma hsa-miR-122 [1]: 1.36 fold
- Fold change of plasma hsa-miR-126 [1]: 1.30 fold
- Fold change of plasma hsa-miR-133a [1]: 1.29 fold
- Fold change of plasma hsa-miR-140 [1]: 2.13 fold
- Fold change of plasma hsa-miR-150 [1]: 2.07 fold
- Fold change of plasma hsa-miR-185 [1]: 2.35 fold
- Fold change of plasma hsa-miR-210 [1]: 2.31 fold
- Fold change of plasma hsa-miR-223 [1]: 3.02 fold
- Fold change of plasma hsa-miR-320 [1]: 3.16 fold
- Fold change of plasma hsa-miR-378 [1]: 1.74 fold
- Fold change of plasma hsa-miR-378* [1]: 1.38 fold
- Fold change of plasma hsa-miR-423-5p [1]: 2.52 fold
- Fold change of plasma hsa-miR-499 [1]: 1.26 fold
- Fold change of plasma hsa-miR-19b [2]: 2.68 fold
- Fold change of plasma hsa-miR-125a-5p [2]: 2.05 fold
- Fold change of plasma hsa-miR-143 [2]: 1.53 fold
- Fold change of plasma hsa-miR-145 [2]: 2.17 fold
- Fold change of plasma hsa-miR-195 [2]: 2.10 fold
- Fold change of plasma hsa-miR-199b-5p [2]: 2.39 fold
- Fold change of plasma hsa-miR-204 [2]: 2.18 fold
- Fold change of plasma hsa-miR-214 [2]: 1.49 fold
- Fold change of plasma hsa-let-7b [3]: 1.09 fold
- Fold change of plasma hsa-miR-16 [3]: 2.04 fold
- Fold change of plasma hsa-miR-17 [3]: 1.41 fold
- Fold change of plasma hsa-miR-18a [3]: 2.01 fold
- Fold change of plasma hsa-miR-20a [3]: 2.43 fold
- Fold change of plasma hsa-miR-20b [3]: 4.87 fold
- Fold change of plasma hsa-miR-24 [3]: 1.17 fold
- Fold change of plasma hsa-miR-25 [3]: 1.33 fold
- Fold change of plasma hsa-miR-26b [3]: 1.98 fold
- Fold change of plasma hsa-miR-27a [3]: 2.74 fold
- Fold change of plasma hsa-miR-27b [3]: 1.18 fold
- Fold change of plasma hsa-miR-29c [3]: 1.34 fold
- Fold change of plasma hsa-miR-30a [3]: 1.28 fold
- Fold change of plasma hsa-miR-30b [3]: 1.21 fold
- Fold change of plasma hsa-miR-92a [3]: 1.20 fold
- Fold change of plasma hsa-miR-93 [3]: 2.93 fold
- Fold change of plasma hsa-miR-101a [3]: 1.11 fold
- Fold change of plasma hsa-miR-103a [3]: 1.16 fold
- Fold change of plasma hsa-miR-106b [3]: 2.15 fold
- Fold change of plasma hsa-miR-122 [3]: 1.59 fold
- Fold change of plasma hsa-miR-125b-5p [3]: 1.51 fold
- Fold change of plasma hsa-miR-133a [3]: 2.21 fold
- Fold change of plasma hsa-miR-140-5p [3]: 3.23 fold
- Fold change of plasma hsa-miR-148a [3]: 2.49 fold
- Fold change of plasma hsa-miR-181c [3]: 1.37 fold
- Fold change of plasma hsa-miR-182 [3]: 1.39 fold
- Fold change of plasma hsa-miR-184 [3]: 1.42 fold
- Fold change of plasma hsa-miR-185 [3]: 7.02 fold
- Fold change of plasma hsa-miR-188-5p [3]: 1.76 fold
- Fold change of plasma hsa-miR-192 [3]: 1.92 fold
- Fold change of plasma hsa-miR-195 [3]: 1.73 fold
- Fold change of plasma hsa-miR-197 [3]: 1.52 fold
- Fold change of plasma hsa-miR-199a-5p [3]: 4.95 fold
- Fold change of plasma hsa-miR-203 [3]: 1.13 fold
- Fold change of plasma hsa-miR-218 [3]: 1.32 fold
- Fold change of plasma hsa-miR-222 [3]: 1.11 fold
- Fold change of plasma hsa-miR-223 [3]: 1.88 fold
- Fold change of plasma hsa-miR-301a [3]: 1.79 fold
- Fold change of plasma hsa-miR-320a [3]: 1.89 fold
- Fold change of plasma hsa-miR-324-5p [3]: 1.39 fold
- Fold change of plasma hsa-miR-335-5p [3]: 1.07 fold
- Fold change of plasma hsa-miR-340-5p [3]: 1.19 fold
- Fold change of plasma hsa-miR-365 [3]: 2.61 fold
- Fold change of plasma hsa-miR-423-5p [3]: 4.18 fold
- Fold change of plasma hsa-miR-451 [3]: 3.28 fold
- Fold change of plasma hsa-miR-484 [3]: 1.46 fold
- Fold change of plasma hsa-miR-486-5p [3]: 1.49 fold
- Fold change of plasma hsa-miR-542-3p [3]: 11.10 fold
- Fold change of plasma hsa-miR-744 [3]: 1.83 fold
- Fold change of plasma hsa-let-7c [4]: 1.54 fold
- Fold change of plasma hsa-let-7e [4]: 1.66 fold
- Fold change of plasma hsa-let-7g [4]: 3.02 fold
- Fold change of plasma hsa-let-7d [4]: 1.98 fold
- Fold change of plasma hsa-miR-19a [4]: 1.90 fold
- Fold change of plasma hsa-miR-19b [4]: 3.27 fold
- Fold change of plasma hsa-miR-26a [4]: 1.39 fold
- Fold change of plasma hsa-miR-28 [4]: 6.61 fold
- Fold change of plasma hsa-miR-29a [4]: 1.31 fold
- Fold change of plasma hsa-miR-29b [4]: 2.67 fold
- Fold change of plasma hsa-miR-30c [4]: 1.37 fold
- Fold change of plasma hsa-miR-30e [4]: 1.06 fold
- Fold change of plasma hsa-miR-31 [4]: 1.45 fold
- Fold change of plasma hsa-miR-99b [4]: 2.63 fold
- Fold change of plasma hsa-miR-107 [4]: 5.54 fold
- Fold change of plasma hsa-miR-125a-3p [4]: 12.16 fold
- Fold change of plasma hsa-miR-125a-5p [4]: 5.34 fold
- Fold change of plasma hsa-miR-126 [4]: 1.27 fold
- Fold change of plasma hsa-miR-126-5p (miR-126*) [4]: 2.01 fold
- Fold change of plasma hsa-miR-128a [4]: 1.75 fold
- Fold change of plasma hsa-miR-130a [4]: 2.30 fold
- Fold change of plasma hsa-miR-130b [4]: 1.26 fold
- Fold change of plasma hsa-miR-138 [4]: 1.08 fold
- Fold change of plasma hsa-miR-139-5p [4]: 1.14 fold
- Fold change of plasma hsa-miR-142-3p [4]: 25.04 fold
- Fold change of plasma hsa-miR-142-5p [4]: 1.98 fold
- Fold change of plasma hsa-miR-143 [4]: 8.47 fold
- Fold change of plasma hsa-miR-145 [4]: 2.07 fold
- Fold change of plasma hsa-miR-146a [4]: 1.17 fold
- Fold change of plasma hsa-miR-152 [4]: 2.05 fold
- Fold change of plasma hsa-miR-155 [4]: 1.73 fold
- Fold change of plasma hsa-miR-181a [4]: 3.00 fold
- Fold change of plasma hsa-miR-186 [4]: 1.83 fold
- Fold change of plasma hsa-miR-187 [4]: 1.60 fold
- Fold change of plasma hsa-miR-191 [4]: 1.23 fold
- Fold change of plasma hsa-miR-196b [4]: 11.73 fold
- Fold change of plasma hsa-miR-199a-3p [4]: 3.14 fold
- Fold change of plasma hsa-miR-204 [4]: 4.61 fold
- Fold change of plasma hsa-miR-214 [4]: 1.57 fold
- Fold change of plasma hsa-miR-296-5p [4]: 18.29 fold
- Fold change of plasma hsa-miR-302a [4]: 2.10 fold
- Fold change of plasma hsa-miR-324-3p [4]: 1.07 fold
- Fold change of plasma hsa-miR-331-3p [4]: 1.53 fold
- Fold change of plasma hsa-miR-339-5p [4]: 2.18 fold
- Fold change of plasma hsa-miR-340-3p [4]: 1.86 fold
- Fold change of plasma hsa-miR-342-3p [4]: 1.15 fold
- Fold change of plasma hsa-miR-375 [4]: 1.32 fold
- Fold change of plasma hsa-miR-449a [4]: 2.99 fold
- Fold change of plasma hsa-miR-487b [4]: 2.67 fold
- Fold change of plasma hsa-miR-532-3p [4]: 1.72 fold
- Fold change of plasma hsa-miR-574-3p [4]: 2.20 fold
- Fold change of plasma hsa-miR-30d [4]: 1.29 fold
